In patent US20060281789A1, “Protein kinase inhibitors” (KYOWA HAKKO KOGYO CO., LTD, priority 2003, published 2006):
Where a name gives a salt, the structure may show the parent alone.

Experiments:
[1] = tested on: MV-4-11; assay: Cytostatic activity on human acute myeloid leukemia cell line MV-4-11 (WST-1); assay type: cell-based; settings: MV4-11, 3.16 μmol/L, 72 hours, read-out: MV-4-11 (%) cytostatic rate
Description: (§1) The cytostatic rates of a test compound on human acute myeloid leukemia cell lines MV-4-11 and ML-1, and human chronic myeloid leukemia cell line K562 were determined in the following manner.
(§2) Each cell was cultured using Roswell Park Memorial Institute's Medium (RPMI) 1640 (Gibco, Catalog No. 11875-093) containing 10% fetal bovine serum (Gibco, Catalogue No. 10437-028) and penicillin/streptomycin (1:1) (Gibco, Catalogue No. 15140-122). Each 80 μL of the MV-4-11 cell having a concentration of 7.5×10^4 cells/mL (or the ML-1 cell or K562 cell having a concentration of 2.5×10^4 cells/mL) was inoculated to wells of a TC MICROWELL 96U plate (Nalge Nunc International, Catalogue No. 163320) and was cultured in a 5% carbon dioxide gas incubator at 37° C. for 4 hours. As a blank, only RPMI medium (80 μL) was added to a well. Each 20 μL of a solution of the test compound in dimethyl sulfoxide (DMSO) which was prepared to make the final concentration to 3.16 μmol/L or 10 μmol/L, was added to the MV-4-11 cell, ML-1 cell and K562 cell, respectively. Each 20 μL of DMSO was added to the control well and the blank well to a final concentration of 0.1%. After adding the test compound, the cells were incubated in a 5% carbon dioxide gas incubator at 37° C. for 72 hours. After adding 20 μL of WST-1 reagent {4-[3-(4-iodophenyl)-2-(4-nitrophenyl)-2H-5-tetrazolio]-1,3-benzene disulfonate sodium salt) (Roche Diagnostics K.K., Catalogue No. 1644807) diluted to 50% with RPMI medium, the cells were further incubated at 37° C. for 2 hours. Then, the absorbances at 450 nm (reference wavelength: 690 nm) were determined with a microplate spectrophotometer SPECTRA max 340PC (Molecular Devices Corporation). The relative growth (%) of a well to which the test compound had been added was determined while setting the absorbance of a well to which not the test compound but DMSO alone had been added (control) at 100% and that of a well containing RPMI medium alone at 0%. The cytostatic rate (%) of the test compound was determined by subtracting the calculated relative growth from 100.

[2] = tested on: K562; assay: Cytostatic activity on human chronic myeloid leukemia cell line K562 (WST-1); assay type: cell-based; settings: 10 μmol/L, 72 hours, read-out: K562 (%) cytostatic rate
Description: as §1, §2

[3] = tested on: ML-1; assay: Cytostatic activity on human acute myeloid leukemia cell line ML-1 (WST-1); assay type: cell-based; settings: ML1, 3.16 μmol/L, 72 hours, read-out: ML-1 (%) cytostatic rate
Description: as §1, §2

[4] = molecular target: T1, human Flt-3 (Homo sapiens, UniProt P36888); assay: Inhibitory activity on Flt-3 (GST-fused kinase, time-resolved fluoroimmunoassay); assay type: biochemical; settings: tested compound 10 μmol/L, ATP 10 μmol/L, sixty minutes
T1 construct: fused to the N-terminus of the intracellular domain (583-953 amino acids) thereof; made in house; host or cells: insect cells (baculovirus)
T1 sequence (P36888 583-953): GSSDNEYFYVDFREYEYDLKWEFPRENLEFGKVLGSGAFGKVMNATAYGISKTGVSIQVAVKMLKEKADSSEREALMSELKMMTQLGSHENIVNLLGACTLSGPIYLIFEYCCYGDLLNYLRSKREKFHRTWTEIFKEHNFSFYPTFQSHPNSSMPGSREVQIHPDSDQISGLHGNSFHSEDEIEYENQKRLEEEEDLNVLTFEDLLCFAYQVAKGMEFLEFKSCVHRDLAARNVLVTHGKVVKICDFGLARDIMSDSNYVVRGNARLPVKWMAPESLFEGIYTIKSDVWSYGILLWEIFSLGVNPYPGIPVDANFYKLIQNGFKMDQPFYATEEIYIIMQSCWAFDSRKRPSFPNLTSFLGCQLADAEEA
Description: Flt-3 inhibitory activities were determined in the following manner.
Flt-3 was prepared by allowing baculovirus to infect insect cells, which baculovirus expresses a protein comprising human Flt-3 with […]. […] Separately was prepared a solution containing, at final concentrations, GST-fused Flt-3 (100 μg/L), Tris-Cl (pH 7.5) (20 mmol/L), β-glycerophosphate (5 mmol/L), dithiothreitol (DTT) (1 mmol/L), Na3VO4 (0.1 mmol/L), MgCl2 (10 mmol/L), MnCl2 (10 mmol/L), ATP (10 μmol/L), bovine serum albumin (BSA) (0.1%), DMSO (0.1%), and a tested compound (10 μmol/L). The solution (each 60 μL) was placed into the wells of the plate for the determination of kinase reaction, followed by enzymatic reaction at room temperature for sixty minutes. After reacting, the reaction was stopped by the addition of 50 μL of a 25 mmol/L aqueous solution of ethylenediaminetetraacetic acid. […] The relative activity (%) of a well in which the enzyme and tested compound were added was determined by calculation with the value in a well to which the tested compound was not added being 100% and the value in a well to which the enzyme and the tested compound were not added being 0%. The Flt-3 inhibitory activity (%) of the tested compound was determined by subtracting the relative activity (%) from 100.

| Compound | inhibition at 10 µM [4] | further results |
| --- | --- | --- |
| C(=C\c1n[nH]c2ccccc12)/c1cccnc1 [Compound 21, (E)-3-[2-(3-pyridyl)vinyl]-1H-indazole] |  | inhibition at 3.16 µM [1]: 79%; inhibition at 10 µM [2]: 41%; inhibition at 3.16 µM [3]: 25% |
| C(=C\c1n[nH]c2ccccc12)/c1ccc(OCCN2CCCCC2)cc1 [Compound 8, (E)-3-{2-[4-(2-piperidinoethoxy)phenyl]vinyl}-1H-indazole hydrochloride] |  | inhibition at 3.16 µM [1]: 97%; inhibition at 10 µM [2]: 94%; inhibition at 3.16 µM [3]: 90% |
| O=C1CN(C(=O)c2ccc(/C=C/c3n[nH]c4ccccc34)cc2)CCN1 [Compound 70, (E)-4-{4-[2-(1H-indazol-3-yl)vinyl]benzoyl}piperadin-2-one] |  | Inhibitory activity on Flt-3 (%) [4]: 93.7% |
| CS(=O)(=O)Nc1cc(/C=C/c2n[nH]c3ccccc23)ccc1OCCN1CCOCC1 [Compound 60, (E)-N-{5-[2-(1H-Indazol-3-yl)vinyl]-2-(2-morpholinoethoxy)phenyl}methanesulfonamide] | 90.2% |  |
| CN(C)CCOc1cccc(/C=C/c2n[nH]c3ccccc23)c1 [Compound 18, (E)-3-{2-[3-(2-dimethylaminoethoxy)phenyl]vinyl}-1H-indazole hydrochloride] |  | inhibition at 3.16 µM [1]: 95%; inhibition at 10 µM [2]: 59%; inhibition at 3.16 µM [3]: 4.1% |
| CN(C)CCOc1ccc(/C=C/c2n[nH]c3ccccc23)cc1 [Compound 2, (E)-3-(2-[4-(2-dimethylaminoethoxy)phenyl]vinyl}-1H-indazole hydrochloride] | 97.8% |  |
| O=C(NCCN1CCOCC1)c1ccc(/C=C/c2n[nH]c3ccccc23)cc1 [Compound 61, (E)-N-(2-morpholinoethyl)-4-[2-(1H-indazol-3-yl)vinyl]benzamide] | 91% |  |
| CCOC(=O)COc1ccc(/C=C/c2n[nH]c3ccccc23)cc1 [Compound 3, ethyl (E)-4-[2-(1H-indazol-3-yl)vinyl]phenoxyacetate] |  | inhibition at 3.16 µM [1]: 37%; inhibition at 10 µM [2]: 14% |
| OCCOc1ccc(/C=C/c2n[nH]c3ccccc23)cc1 [Compound 4, (E)-3-{2-[4-(2-hydroxyethoxy)phenyl]vinyl}-1H-indazole] |  | inhibition at 3.16 µM [1]: 91%; inhibition at 10 µM [2]: 72%; inhibition at 3.16 µM [3]: 27% |
| COc1cc(/C=C/c2n[nH]c3ccccc23)ccc1OCCN1CCOCC1 [Compound 30, (E)-3-{2-[3-methoxy-4-(2-morpholinoethoxy)phenyl]vinyl}-1H-indazole hydrochloride] | 98.1% |  |
| O=C(c1ccc(/C=C/c2n[nH]c3ccccc23)cc1)N1CCNCC1 [Compound 64, (E)-1-{4-[2-(1H-indazol-3-yl)vinyl]benzoyl}piperazine] | 94.2% |  |
| CC(C)N(CCOc1ccc(/C=C/c2n[nH]c3ccccc23)cc1)C(C)C [Compound 7, (E)-3-{2-[4-(2-diisopropylaminoethoxy)phenyl]vinyl}-1H-indazole hydrochloride] |  | inhibition at 3.16 µM [1]: 97%; inhibition at 10 µM [2]: 93%; inhibition at 3.16 µM [3]: 89% |
| CC(C)(C)OC(=O)N1CCN(C(=O)c2ccc(/C=C/c3n[nH]c4ccccc34)cc2)CC1 [Compound 63, (E)-4-{4-[2-(1H-indazol-3-yl)vinyl]benzoyl)piperazine-1-carboxylic acid 1,1-dimethylethylester] | 97.4% |  |
| CCN(CC)C(=O)c1ccc(/C=C/c2n[nH]c3ccccc23)cc1 [Compound 62, (E)-N,N-Diethyl-4-[2-(1H-indazol-3-yl)vinyl]benzamide hydrochloride] | 93.7% |  |
| CC(C)(N)C(=O)N1CCN(C(=O)c2ccc(/C=C/c3n[nH]c4ccccc34)cc2)CC1.Cl.Cl [Compound 74, (E)-4-(2-amino-2-methylpropionyl)-1-{4-[2-(1H-indazol-3-yl)vinyl]benzoyl}piperazine dihydrochrolide] |  | Inhibitory activity on Flt-3 (%) [4]: 97.0% |
| Nc1cc(/C=C/c2n[nH]c3ccccc23)ccc1OCCN1CCOCC1 [Compound 38, (E)-3-{2-[3-amino-4-(2-morpholinoethoxy)phenyl]vinyl}-1H-indazole] | 99.2% |  |

Now from value to molecule, other results behind:

| inhibition at 10 µM [4] | Compound | further results |
| --- | --- | --- |
| 95.7% | CCOC(=O)N1CCN(C(=O)c2ccc(/C=C/c3n[nH]c4ccccc34)cc2)CC1 [Compound 66, (E)-1-{4-[2-(1H-indazol-3-yl)vinyl]benzoyl}-4-ethoxycarbonylpiperazine] |  |
| 95.1% | CC(=O)N(C)CC(=O)N1CCN(C(=O)c2ccc(/C=C/c3n[nH]c4ccccc34)cc2)CC1 [Compound 75, (E)-4-(N-acetyl-N-methylaminoacetyl)-1-(4-[2-(1H-indazol-3-yl)vinyl]benzoyl}piperazine] |  |
| 96.4% | O=C(c1ccncc1)N1CCN(C(=O)c2ccc(/C=C/c3n[nH]c4ccccc34)cc2)CC1 [Compound 67, (E)-1-{4-[2-(1H-indazol-3-yl)vinyl]benzoyl}-4-(isonicotinoyl)piperazine] |  |
| 95.8% | COCC(=O)N1CCN(C(=O)c2ccc(/C=C/c3n[nH]c4ccccc34)cc2)CC1 [Compound 69, (E)-4-methoxyacetyl-1-{4-[2-(1H-indazol-3-yl)vinyl]benzoyl}piperazine] |  |
| 94.4% | CCN(CC)CCNC(=O)c1ccc(/C=C/c2n[nH]c3ccccc23)cc1 [Compound 68, (E)-N-[2-(diethylamino)ethyl]-4-[2-(1H-indazol-3-yl)vinyl]benzamide] |  |
| 96.3% | CN1CCC(C(=O)N2CCN(C(=O)c3ccc(/C=C/c4n[nH]c5ccccc45)cc3)CC2)CC1 [Compound 77, (E)-4-[(1-methylpiperidin-4-yl)carbonyl]-1-(4-[2-(1H-indazol-3-yl)vinyl]benzoyl)piperazine] |  |
| 95.2% | NC1CCN(C(=O)c2ccc(/C=C/c3n[nH]c4ccccc34)cc2)C1 (centres unmarked) [Compound 71, (E)-1-{4-[2-(1H-indazol-3-yl)vinyl]benzoyl}-3-aminopyrrolidine dihydrochloride] |  |
| 94.4% | O=CN1CCN(C(=O)c2ccc(/C=C/c3n[nH]c4ccccc34)cc2)CC1 [Compound 65, (E)-4-{4-[2-(1H-indazol-3-yl)vinyl]benzoyl}piperazine-1-carbaldehyde] |  |
| 95.7% | NC1CCN(C(=O)c2ccc(/C=C/c3n[nH]c4ccccc34)cc2)CC1 [Compound 78, (E)-1-{4-[2-(1H-indazol-3-yl)vinyl]benzoyl}-4-aminopiperidine] |  |
| 95% | O=C(c1ccc(/C=C/c2n[nH]c3ccccc23)cc1)N1CCN(C(=O)[C@H]2CCNC2)CC1 [Compound 72, (S)-(E)-1-{4-[2-(1H-indazol-3-yl)vinyl]benzoyl}-4-(pyrrolidin-3-ylcarbonyl)piperazine dihydrochloride] |  |
| 93.9% | O=C(c1ccc(/C=C/c2n[nH]c3ccccc23)cc1)N1CCN(C(=O)[C@@H]2CCCN2)CC1 [Compound 76, (S)-(E)-4-[(pyrrolidin-2-yl)carbonyl]-1-{4-[2-(1H-indazol-3-yl)vinyl]benzoyl}piperazine] |  |
